For series [1], the system named is M9ENL AML cell lines. The following applies: for CC50: read-out: LC50, M9ENL AML cell lines, after 24 hours of drug exposure; for EC50: Table 5, cell line not given; for potency relative to parthenolide and MMB: M9 ENL cell lines.
In series [2] the test system is M9ENL AML cell lines. The series is described as follows: cells. The following applies: Table 5; cell line not given.
For series [3], the system named is AML cell line AML 123009. The conditions noted are these: for cytotoxicity relative to PTL: AML 123009, FIG. 6; for EC50: read-out: Viability EC50, AML cell line 123009.

Read-outs that look alike come from different tables or passages of the source.

For orientation: EC50 means the midpoint of the concentration-response curve.

For `C=C1C(=O)OC2C1CCC(COC(=O)NCCCCCCCNC(=O)OCC1=CCCC3(C)OC3C3OC(=O)C(=C)C3CC1)=CCCC1(C)OC21` [JVM 3-58, bis(((1aR,7aS, 10aS, 10bS, E)-1a-Methyl-8-methylene-9-oxo-1a,2,3,6,7,7a,8,9,10a,10b-decahydrooxireno[2′,3′:9,10]cyclodeca[1,2-b]furan-5-yl)methyl)heptane-1,7-diyldicarbamate], the CC50 in series [1] turned out to be 1.2 µM.

`C=C1C(=O)O[C@H]2[C@H]1CC/C(COC(=O)NCCCCCCCCNCC1C(=O)O[C@H]3[C@H]1CC/C(COC(=O)NCCCCCCCCNC(=O)OC/C1=C/CC[C@@]4(C)O[C@H]4[C@H]4OC(=O)[C@@H](CNCCCCCCCCNC(=O)OC/C5=C/CC[C@@]6(C)O[C@H]6[C@H]6OC(=O)C(=C)[C@@H]6CC5)[C@@H]4CC1)=C\CC[C@@]1(C)O[C@@H]31)=C\CC[C@@]1(C)O[C@@H]21` (stereo partly drawn) [JVM 3-62-1]: a half-maximal effect in series [2] (EC50) was put at 1.7 µM.

Turning to `C=C1C(=O)O[C@H]2[C@H]1CC/C(Cn1cc(-c3cccc(-c4cn(C/C5=C/CC[C@@]6(C)O[C@H]6[C@H]6OC(=O)C(=C)[C@@H]6CC5)nn4)c3)nn1)=C\CC[C@@]1(C)O[C@@H]21` [JVM 4-41A], a half-maximal response in series [2] (EC50) required 2.3 µM.

Consider `C=C1C(=O)OC2C1CCC(COC(=O)NCCCCCCCCCNC(=O)OCC1=CCCC3(C)OC3C3OC(=O)C(=C)C3CC1)=CCCC1(C)OC21` [JVM 3-61, bis(((1aR,7aS, 10aS, 10bS, E)-1a-Methyl-8-methylene-9-oxo-1a,2,3,6,7,7a,8,9,10a, 1b-decahydrooxireno[2′,3′:9,10]cyclodeca[1,2-b]furan-5-yl)methyl)nonane-1,9-diyldicarbamate], for which, in series [1], the CC50 was 1.8 µM.

With `C=C1C(=O)O[C@H]2[C@H]1CC/C(COC(=O)NCCCCCCCCCCNC(=O)OC/C1=C/CC[C@@]3(C)O[C@H]3[C@H]3OC(=O)C(=C)[C@@H]3CC1)=C\CC[C@@]1(C)O[C@@H]21` [JVM 3-65, bis(((1aR,7aS,10aS, 10bS,E)-1a-Methyl-8-methylene-9-oxo-1a,2,3,6,7,7a,8,9,10a,10b-decahydrooxireno[2,3′:9,10]cyclodeca[1,2-b]furan-5-yl)methyl)decane-1,10-diyldicarbamate], in series [1], the CC50 is 1.6 µM.

Consider `C=C1C(=O)OC2C1CCC(COC(=O)NCCCNC(=O)OCC1=CCCC3(C)OC3C3OC(=O)C(=C)C3CC1)=CCCC1(C)OC21` [JVM 3-55, bis(((1aR,7aS,10aS,10bS,E)-1a-Methyl-8-methylene-9-oxo-1a,2,3,6,7,7a,8,9,10a,10b-decahydrooxireno[2′,3′:9,10]cyclodeca[1,2-b]furan-5-yl)methyl)propane-1,3-diyldicarbamate], for which the CC50 in series [1] turned out to be 0.56 µM.

With `C=C1C(=O)O[C@H]2[C@H]1CC/C(COC(=O)CC(=O)OC/C1=C/CC[C@@]3(C)O[C@H]3[C@H]3OC(=O)C(=C)[C@@H]3CC1)=C\CC[C@@]1(C)O[C@@H]21` [JVM 3-99, bis(((1aR,7aS,10aS,10bS,E)-1a-methyl-8-methylene-9-oxo-1a,2,3,6,7,7a,8,9,10a, 1b-decahydrooxireno[2′,3′:9,10]cyclodeca[1,2-b]furan-5-yl)methyl)malonate], in series [1], the midpoint of the response, the EC50, lay at 1 µM. Further, in series [3], the “cytotoxicity relative to PTL” value is listed as “enhanced cytotoxicity relative to PTL” and the EC50 turned out to be 1 µM.

In the case of `C=C1C(=O)O[C@H]2[C@H]1CC/C(C(=O)NCCCCCCCCCCNC(=O)/C1=C/CC[C@@]3(C)O[C@H]3[C@H]3OC(=O)C(=C)[C@@H]3CC1)=C\CC[C@@]1(C)O[C@@H]21` [JVM 3-83, (1aR,1a′R,4E,4′E,7aS,7a′S,10aS, 10bS, 10a′S, 10b′S)—N,N′-(decane-1,10-diyl)bis(1a-methyl-8-methylene-9-oxo-1a,2,3,6,7,7a,8,9,10a,10b-decahydrooxireno[2′,3′:9,10]cyclodeca[1,2-b]furan-5-carboxamide)], in series [1], the “potency relative to parthenolide and MMB” value is “more potency than parthenolide and MMB”; the concentration for a half-maximal effect (EC50) is 2.8 µM. For the same compound, in series [3], the “cytotoxicity relative to PTL” value is “enhanced cytotoxicity relative to PTL” and the EC50 was determined as 2.8 µM.

The compound `CN(C)CC1C(=O)O[C@H]2[C@H]1CC/C(COC(=O)OC/C1=C/CC[C@@]3(C)O[C@H]3[C@H]3OC(=O)C(CN(C)C)[C@@H]3CC1)=C\CC[C@@]1(C)O[C@@H]21` (stereo partly drawn) [JVM 3-55 B] displayed a 50% effective concentration (EC50) in series [2] of 5.1 µM.

In the case of `CN(C)CC1C(=O)O[C@H]2[C@H]1CC/C(COC(=O)NCCCCCCCCNC(=O)OC/C1=C/CC[C@@]3(C)O[C@H]3[C@H]3OC(=O)C(CN(C)C)[C@@H]3CC1)=C\CC[C@@]1(C)O[C@@H]21` (single isomer, unassigned) [JVM 3-62B], the EC50 in series [1] was 1.2 µM.

As for `C=C1C(=O)O[C@H]2[C@H]1CC/C(COC(=O)OCCC(CCO)OCCCCCCCCCCn1cc(CNC(=O)CCCCC3SCC4NC(=O)NC43)nn1)=C\CC[C@@]1(C)O[C@@H]21` (stereo partly drawn) [BS-4-38b], in series [2], it took 30 µM to reach a half-maximal effect (EC50).

Consider `C[C@@]12CC/C=C3\CC[C@@H]4[C@H](OC(=O)[C@H]4CNCCCCCCCCNC[C@@H]4C(=O)O[C@H]5[C@H]4CC/C(=C\CC[C@@]4(C)O[C@@H]54)COC(=O)NCCCCCCCCNC(=O)OC3)[C@@H]1O2` [JVM 3-62-2], for which the midpoint of the response in series [2], the EC50, lay at 38.1 µM.

For `C=C1C(=O)OC2C1CCC(C(=O)NCCCCCCCCNC(=O)C1=CCCC3(C)OC3C3OC(=O)C(=C)C3CC1)=CCCC1(C)OC21` [JVM 3-78, (1aR,1a′R,4E,4′E,7aS,7a′S, 10aS, 10bS, 10a′S, 10b′S)—N,N′-(octane-1,8-diyl)bis(1a-methyl-8-methylene-9-oxo-1a,2,3,6,7,7a,8,9,10a,10b-decahydrooxireno[2′,3′:9,10]cyclodeca[1,2-b]furan-5-carboxamide)], the “potency relative to parthenolide and MMB” value in series [1] is “more potency than parthenolide and MMB”.

As for `C=C1C(=O)O[C@H]2[C@H]1CC/C(COC(=O)NCCC(O)CCNC(=O)OC/C1=C/CC[C@@]3(C)O[C@H]3[C@H]3OC(=O)C(=C)[C@@H]3CC1)=C\CC[C@@]1(C)O[C@@H]21` (stereo partly drawn) [BS-3-24], it took 9.03 µM to reach a half-maximal effect in series [2] (EC50).

For the compound `C=C1C(=O)OC2C1CCC(C(=O)NCCCCCCCNC(=O)C1=CCCC3(C)OC3C3OC(=O)C(=C)C3CC1)=CCCC1(C)OC21` [JVM 3-84, (1aR,1a′R,4E,4′E,7aS,7a′S,10aS,10bS,10a′S,10b′S)—N,N′-(heptane-1,7-diyl)bis(1a-methyl-8-methylene-9-oxo-1a,2,3,6,7,7a,8,9,10a,10b-decahydrooxireno[2′,3′:9,10]cyclodeca[1,2-b]furan-5-carboxamide)], the “potency relative to parthenolide and MMB” value in series [1] is “more potency than parthenolide and MMB”.

Regarding `C=C1C(=O)O[C@H]2[C@H]1CC/C(COC(=O)OCCC(CCOC(=O)OC/C1=C/CC[C@@]3(C)O[C@H]3[C@H]3OC(=O)C(=C)[C@@H]3CC1)OCCCCCCCCCCn1cc(CNC(=O)CCCCC3SCC4NC(=O)NC43)nn1)=C\CC[C@@]1(C)O[C@@H]21` (stereo partly drawn) [BS-4-38a], the EC50 in series [2] was found to be 20 µM.

With `C=C1C(=O)OC2C1CCC(COC(=O)OCCCCOC(=O)OCC1=CCCC3(C)OC3C3OC(=O)C(=C)C3CC1)=CCCC1(C)OC21` [JVM 3-91A, butane-1,4-diylbis(((1aR,7aS,10aS,10bS,E)-1a-methyl-8-methylene-9-oxo-1a,2,3,6,7,7a, 8,9,10a,10b-decahydrooxireno[2′,3′:9,10]cyclodeca[1,2-b]furan-5-yl)methyl)dicarbonate], a half-maximal effect in series [1] (EC50) was put at 0.93 µM. In series [3], the “cytotoxicity relative to PTL” value is reported as “enhanced cytotoxicity relative to PTL” and the EC50 was 0.93 µM.

In turn, `C=C1C(=O)O[C@H]2[C@H]1CC/C(Cn1cc(CNCc3cn(C/C4=C/CC[C@@]5(C)O[C@H]5[C@H]5OC(=O)C(=C)[C@@H]5CC4)nn3)nn1)=C\CC[C@@]1(C)O[C@@H]21` [JVM 4-44] returned an EC50 in series [2] of 51.6 µM.

As to `C=C1C(=O)OC2C1CCC(C(=O)NCCCCCCCCCNC(=O)C1=CCCC3(C)OC3C3OC(=O)C(=C)C3CC1)=CCCC1(C)OC21` [JVM 3-82, (1aR,1a′R,4E,4′E,7aS,7a′S,10aS,10bS,10a′S,10b′S)—N,N′-(nonane-1,9-diyl)bis(1a-methyl-8-methylene-9-oxo-1a,2,3,6,7,7a,8,9,10a,10b-decahydrooxireno[2 ′,3 ′9,10]cyclodeca[1,2-b]furan-5-carboxamide)], the “potency relative to parthenolide and MMB” value in series [1] was “more potency than parthenolide and MMB”.

In series [2], `C=C1C(=O)O[C@H]2[C@H]1CC/C(COC(=O)OCCC(CCOC(=O)OC/C1=C/CC[C@@]3(C)O[C@H]3[C@H]3OC(=O)C(=C)[C@@H]3CC1)O[Si](C)(C)C(C)(C)C)=C\CC[C@@]1(C)O[C@@H]21` (stereo partly drawn) [BS-3-14] yielded an EC50 of 1.11 µM.

`C=C1C(=O)O[C@H]2[C@H]1CC/C(Cn1cc(CCCc3cn(C/C4=C/CC[C@@]5(C)O[C@H]5[C@H]5OC(=O)C(=C)[C@@H]5CC4)nn3)nn1)=C\CC[C@@]1(C)O[C@@H]21` [JVM 4-51] displayed an EC50 in series [2] of 4 µM.

Take `C=C1C(=O)OC2C1CCC(COC(=O)NCCCCCCNC(=O)OCC1=CCCC3(C)OC3C3OC(=O)C(=C)C3CC1)=CCCC1(C)OC21` [JVM 3-64, bis(((1aR,7aS,10aS,10bS,E)-1a-Methyl-8-methylene-9-oxo-1a,2,3,6,7,7a,8,9,10a,10b-decahydrooxireno[2′,3′:9,10]cyclodeca[1,2-b]furan-5-yl)methyl)hexane-1,6-diyldicarbamate]: the CC50 in series [1] was 0.34 µM.

For the compound `CN(C)CC1C(=O)O[C@H]2[C@H]1CC/C(COC(=O)NCCCCCCCCNC(=O)OC/C1=C/CC[C@@]3(C)O[C@H]3[C@H]3OC(=O)C(CN(C)C)[C@@H]3CC1)=C\CC[C@@]1(C)O[C@@H]21` (single isomer, unassigned) [JVM 3-62A], the EC50 in series [2] came to 1.3 µM.

The values are drawn from patent US10118935B2, “Melampomagnolide B dimers” (priority 2014, dated 2018).
